Measurements: patent US20250340561A1, “QUINAZOLINE COMPOUND FOR INDUCING DEGRADATION OF G12D MUTANT KRAS PROTEIN” (Astellas Pharma Inc., priority 2021, published 2025)
Where a name gives a salt, the structure may show the parent alone. Read-outs that look alike come from different tables or passages of the source.

Tests used:
[1] = tested on: human G12D mutant KRAS-positive pancreatic cancer line AsPC-1; test: Test Example 3: non-anchorage-dependent cell growth inhibition, spheroid 3D cell culture; assay type: cell-based; settings: AsPC-1 spheroid 3D culture, 6 days, CellTiter Glo 2.0
Protocol: Test Example 3: Evaluation of Non-Anchorage-Dependent Cell Growth Inhibition Action on Human G12D Mutant KRAS-Positive Pancreatic Cancer Line AsPC-1
The non-anchorage-dependent cell growth inhibition action of test compounds was evaluated by spheroid 3D cell culture.
AsPC-1 cells were seeded on a low-cell-adhesive round bottom 384-well plate (PrimeSurface: from Sumitomo Bakelite) at 36 μL/well to give 5×10^2 cells per well. The cell culture was performed under the same conditions as in the Test Example 2.
The next day, the test compounds (6 points having final concentrations in the range of 10 μM to 3.0 nM) and DMSO, which was the solvent for the test compounds, as a negative control were diluted 100-fold with a fresh medium and were added at 4 μL per well. After culturing in the presence of […] at 37° C. for 6 days, CellTiter Glo 2.0 (from Promega) was added at 20 μL per well. After stirring with a plate mixer (from FINEPCR) at normal temperature for 1 hour, the luminescent signals were measured with ARVO X3 (from PerkinElmer).
With the signaling value in treatment with DMSO taken as […] and with the signaling value in the medium alone without cells taken as […], the […] inhibition values (IC50) were calculated by Sigmoid-Emax model nonlinear regression analysis. The molecular weights of the test compounds were calculated as the molecular weights of the dihydrochloride for Example No. 22, the trihydrochlorides for Example Nos. 2-7, 9-12, 14-18 and 30, the tetrahydrochlorides for Example Nos. 19 and 46, the pentahydrochloride for Example No. 21 and the free forms forming no salt for the remaining Example Nos. The results for some test compounds of the formula (I) are shown in Table 4.

[2] = tested on: phosphorylation of ERK (Thr202/Tyr204); test: Test Example 2: ERK phosphorylation inhibition action in AsPC-1, Cell ELISA; assay type: cell-based, human; settings: AsPC-1 cells, 0% = 1 μM trametinib
Protocol: Test Example 2: Evaluation of ERK Phosphorylation Inhibition Action on Human G12D Mutant KRAS-Positive Pancreatic Cancer Line AsPC-1
The ERK phosphorylation inhibition action of test compounds was evaluated by measuring phosphorylation of the 202th threonine (Thr202) and the 204th tyrosine (Tyr204) of ERK located downstream of the KRAS signal by Cell ELISA.
AsPC-1 cells were seeded on a 384-well plate (from Greiner bio-one) at 36 μL/well to give 2.0×10^4 cells per well. As for the cell culture conditions, a RPMI 1640 medium containing 10% fetal bovine serum was used in the presence of 5% CO2 at 37° C.
The next day, the test compounds (6 points having final concentrations in the range of 10 μM to 3.0 nM), trametinib (MEK inhibitor) of a final concentration of 1 μM as a positive control and DMSO, which was the solvent for the test compounds, as a negative control were diluted 100-fold with a fresh medium and were added at 4 μL per well. The cells were then cultured for 24 hours. After culturing, a 30% glyoxal solution (40% glyoxal [from Nacalai Tesque] was diluted with PBS) was quickly added at 30 μL per well, and the plate was allowed to stand for 90 minutes at room temperature to thus immobilize the cells. Then, the plate was centrifuged to remove the supernatant (using a centrifugal dehydrator machine, the supernatant was removed by the same method hereinafter), and 0.1% Triton X-100-containing PBS was added at 20 μL per well. After allowing to stand for 10 minutes at room temperature, the supernatant was removed by centrifugation, and the same operation was further repeated. Next, 0.5% SDS-containing PBS was added at 20 μL per well, and after allowing to stand at room temperature for 30 minutes, the supernatant was removed by centrifugation. Subsequently, a blocking solution (Intercept Blocking Buffer) was added at 20 μL per well, and the plate was allowed to stand for 1 hour at room temperature. The supernatant was removed by centrifugation, and an ERK (Thr202/Tyr204) phosphorylation antibody (Phospho-p44/42 MAPK (Erk 1/2) (Thr202/Tyr204) (D13.14.4E) XP Rabbit mAb; from Cell Signaling Technology) diluted 2,500-fold with a blocking solution was added at 10 or 15 μL per well as a primary antibody. The plate was allowed to stand at 4° C. overnight.
The next day, the plate was centrifuged to remove the supernatant. 0.05% Tween-20-containing PBS was added at 50 μL per well, and the supernatant was removed by centrifugation to thus wash each well. The washing was performed three times in total. After washing, Goat anti-Rabbit IgG H&L (IRDye 800CW) diluted 1,000-fold with a blocking solution was added at […] as a secondary antibody, and the plate was allowed to stand for 1 hour at room temperature. The plate was centrifuged to remove the supernatant, and each well was washed three times with 0.05% Tween-20-containing PBS in the same manner as after the primary antibody reaction. After removing the supernatant by centrifuging the plate, the plate was dried as it was with air at room temperature for 3 hours or more, and the 800-nm fluorescent signals were measured with Aerius.
With the signaling value at the time of addition of DMSO taken as 100% and with the signaling value at the time of addition of 1 μM trametinib taken as 0%, the 50% inhibition values (IC50) were calculated by Sigmoid-Emax model nonlinear regression analysis. The molecular weights of the test compounds were calculated as the molecular weights of the dihydrochloride for Example No. 22, the trihydrochlorides for Example Nos. 2-7, 9-12, 14-18 and 30, the tetrahydrochlorides for Example Nos. 19 and 46, the pentahydrochloride for Example No. 21 and the free forms forming no salt for the remaining Example Nos. The results for some test compounds of the formula (I) are shown in Table 3.

[3] = Homo sapiens, ASPC1, 144 h, read-out: IC50
[4] = Homo sapiens, ASPC1, 24 h, read-out: IC50

SMILES	IC50 ([1]; Homo sapiens, ASPC1, 144 h) [nM]	IC50 ([2]; Homo sapiens, ASPC1, 24 h) [nM]	also measured
CO[C@H](C)COc1nc(N2C[C@@H]3C[C@H]2CN3)c2cc(C3CC3)c(-c3c(C)c(F)cc4[nH]ncc34)c(OCc3ccc(-c4cn([C@H](C(=O)N5C[C@H](O)C[C@H]5C(=O)N[C@@H](CO)c5ccc(-c6scnc6C)cc5)C(C)C)nn4)cc3)c2n1 [Example 47]	22	18	–
Cc1ncsc1-c1ccc([C@H](CO)NC(=O)[C@@H]2C[C@@H](O)CN2C(=O)[C@H](C(C)C)n2cc(-c3ccc(COc4c(-c5c(C)c(F)cc6[nH]ncc56)c(C5CC5)cc5c(N6C[C@@H]7C[C@H]6CN7)nc(O[C@@H]6CCN(CC(F)F)C6)nc45)cc3)nn2)cc1 [Example 34]	33	26	–
Cc1ncsc1-c1ccc([C@H](CO)NC(=O)[C@@H]2C[C@@H](O)CN2C(=O)[C@H](C(C)C)n2cc(-c3ccc(COc4c(-c5c(C)c(F)cc6[nH]ncc56)c(C5CC5)cc5c(N6C[C@@H]7C[C@H]6CN7)nc(OCC6(CO)CC6)nc45)cc3)nn2)cc1 [Example 61]	61	24	–
Cc1ncsc1-c1ccc(C2(NC(=O)[C@@H]3C[C@@H](O)CN3C(=O)[C@@H](NC(=O)c3ccc(COc4c(-c5c(C)c(F)cc6[nH]ncc56)c(C5CC5)cc5c(N6C[C@@H]7C[C@H]6CN7)nc(OC6CCOCC6)nc45)cn3)C(C)C)CC2)cc1 [Example 2]	1410	779	–
Cc1ncsc1-c1ccc([C@H](CO)NC(=O)[C@@H]2C[C@@H](O)CN2C(=O)[C@H](C(C)C)n2cc(-c3ccc(COc4c(-c5c(C)c(F)cc6[nH]ncc56)c(C5CC5)cc5c(N6C[C@@H]7C[C@H]6CN7)nc(OC6CCOCC6)nc45)cc3)nn2)cc1 [Example 7, (4R)-1-[(2S)-2-(4-{4-[({6-cyclopropyl-4-[(1S,4S)-2,5-diazabicyclo[2.2.1]heptan-2-yl]-7-(6-fluoro-5-methyl-1H-indazol-4-yl)-2-[(oxan-4-yl)oxy]quinazolin-8-yl}oxy)methyl]phenyl}-1H-1,2,3-triazol-1-yl)-3-methylbutanoyl]-4-hydroxy-N-{(1R)-2-hydroxy-1-[4-(4-methyl-1,3-thiazol-5-yl)phenyl]ethyl}-L-prolinamide n hydrochloride]	–	–	IC50 [1, 3]: 31 nM; IC50 [2, 4]: 17 nM
Cc1ncsc1-c1ccc([C@H](CO)NC(=O)[C@@H]2C[C@@H](O)CN2C(=O)[C@H](C(C)C)n2cc(-c3ccc(COc4c(-c5c(C)c(F)cc6[nH]ncc56)c(C5CC5)cc5c(N6C[C@@H]7C[C@H]6CN7)nc(OC6CCOCC6)nc45)cc3F)nn2)cc1 [Example 49, (4R)-1-[(2S)-2-(4-{4-[({6-cyclopropyl-4-[(1S,4S)-2,5-diazabicyclo[2.2.1]heptan-2-yl]-7-(6-fluoro-5-methyl-1H-indazol-4-yl)-2-[(oxan-4-yl)oxy]quinazolin-8-yl}oxy)methyl]-2-fluorophenyl}-1H-1,2,3-triazol-1-yl)-3-methylbutanoyl]-4-hydroxy-N-{(1R)-2-hydroxy-1-[4-(4-methyl-1,3-thiazol-5-yl)phenyl]ethyl}-L-prolinamide]	46	21	–
Cc1ncsc1-c1ccc([C@H](CO)NC(=O)[C@@H]2C[C@@H](O)CN2C(=O)[C@H](C(C)C)n2cc(-c3ccc(COc4c(-c5c(C)c(F)cc6[nH]ncc56)c(C5CC5)cc5c(N6C[C@@H]7C[C@H]6CN7)nc(OC[C@@H]6CCOC6)nc45)cc3)nn2)cc1 [Example 53]	–	–	IC50 [1]: 23 nM; IC50 ([2]; 24 hours): 10 nM
Cc1ncsc1-c1ccc([C@H](CO)NC(=O)[C@@H]2C[C@@H](O)CN2C(=O)[C@H](C(C)C)n2cc(-c3ccc(COc4c(-c5c(C)c(F)cc6[nH]ncc56)c(C5CC5)cc5c(N6C[C@@H]7C[C@H]6CN7)nc(OC6COC6)nc45)cc3)nn2)cc1 [Example 27]	103	27	–
Cc1ncsc1-c1ccc([C@H](CO)NC(=O)[C@@H]2C[C@@H](O)CN2C(=O)[C@H](C(C)C)n2cc(-c3ccc(COc4c(-c5c(C)c(F)cc6[nH]ncc56)c(C5CC5)cc5c(N6C[C@@H]7C[C@H]6CN7)nc(OC[C@H]6CCOC6)nc45)cc3)nn2)cc1 [Example 52]	–	–	IC50 [1]: 31 nM; IC50 ([2]; 24 hours): 11 nM
COC[C@H](C)Oc1nc(N2C[C@@H]3C[C@H]2CN3)c2cc(C3CC3)c(-c3c(C)c(F)cc4[nH]ncc34)c(OCc3ccc(-c4cn([C@H](C(=O)N5C[C@H](O)C[C@H]5C(=O)N[C@@H](CO)c5ccc(-c6scnc6C)cc5)C(C)C)nn4)cc3)c2n1 [Example 54]	24	18	–
Cc1ncsc1-c1ccc([C@H](CO)NC(=O)[C@@H]2C[C@@H](O)CN2C(=O)[C@H](C(C)C)n2cc(-c3ccc(COc4c(-c5c(C)c(F)cc6[nH]ncc56)c(C5CC5)cc5c(N6C[C@@H]7C[C@H]6CN7)nc(OC6CCN(CC(F)F)CC6)nc45)cc3)nn2)cc1 [Example 21]	–	–	IC50 [1, 3]: 47 nM; IC50 [2, 4]: 19 nM
Cc1ncsc1-c1ccc([C@H](CO)NC(=O)[C@@H]2C[C@@H](O)CN2C(=O)[C@H](C(C)C)n2cc(-c3ccc(COc4c(-c5c(C)c(F)cc6[nH]ncc56)c(C5CC5)cc5c(N6C[C@@H]7C[C@H]6CN7)nc(O[C@@H](C)[C@H](C)O)nc45)cc3)nn2)cc1 [Example 42]	46	22	–
Cc1ncsc1-c1ccc(C2(NC(=O)[C@@H]3C[C@@H](O)CN3C(=O)[C@@H](NC(=O)c3ccc(COc4c(-c5c(C)c(F)cc6[nH]ncc56)c(C5CC5)cc5c(N6C[C@@H]7C[C@H]6CN7)nc(OC6CCOCC6)nc45)cc3)C(C)C)CC2)cc1 [Example 1]	190	89	–
Cc1ncsc1-c1ccc([C@H](CO)NC(=O)[C@@H]2C[C@@H](O)CN2C(=O)[C@H](C(C)C)n2cc(-c3ccc(COc4c(-c5c(C)c(F)cc6[nH]ncc56)c(C5CC5)cc5c(N6C[C@@H]7C[C@H]6CN7)nc(NCCO)nc45)cc3)nn2)cc1 [Example 66]	–	–	IC50 [1, 3]: 360 nM; IC50 [2, 4]: 114 nM
COC[C@@H](C)Oc1nc(N2C[C@@H]3C[C@H]2CN3)c2cc(C3CC3)c(-c3c(C)c(F)cc4[nH]ncc34)c(OCc3ccc(-c4cn([C@H](C(=O)N5C[C@H](O)C[C@H]5C(=O)N[C@@H](CO)c5ccc(-c6scnc6C)cc5)C(C)C)nn4)cc3)c2n1 [Example 40]	20	7	–
